Several values for one entry are separate records, joined by “and”; a condition that tells them apart may be missing. Equal values may be shown once. Inconclusive results and toxic doses are left out.
Tested on: P388 leukemia ip, CD2F1 mice, survival T/C
Experiment: NCI In Vivo Anticancer Drug Screen. Data for tumor model P388 Leukemia (intraperitoneal) in CD2F1 (CDF1) mice
Conditions: endpoint: median survival time, higher = longer survival
Procedure, shortened: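 Mice carrying the transplanted tumor received test compound or vehicle. Survival was recorded in each group, and the value is the treated-group measurement divided by that of the vehicle-treated control group.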

[1] = dose: 100.0 mg/kg/injection, schedule: Q01DX009 (ip), vehicle: saline with Tween-80
[2] = dose: 200.0 mg/kg/injection, schedule: Q01DX009 (ip), vehicle: saline with Tween-80
[3] = dose: 400.0 mg/kg/injection, schedule: Q01DX009 (ip), vehicle: saline with Tween-80
[4] = dose: 50.0 mg/kg/injection, schedule: Q01DX009 (ip), vehicle: saline with Tween-80
[5] = dose: 1.56 mg/kg/injection, schedule: Q01DX009 (ip), vehicle: saline
[6] = dose: 3.12 mg/kg/injection, schedule: Q01DX009 (ip), vehicle: saline
[7] = dose: 6.25 mg/kg/injection, schedule: Q01DX009 (ip), vehicle: saline
[8] = dose: 50.0 mg/kg/injection, schedule: Q01DX005 (ip), vehicle: saline with Tween-80
[9] = dose: 100.0 mg/kg/injection, schedule: Q01DX005 (ip), vehicle: saline with Tween-80
[10] = dose: 50.0 mg/kg/injection, schedule: Q01DX009 (ip), vehicle: saline
[11] = dose: 100.0 mg/kg/injection, schedule: Q01DX009 (ip), vehicle: saline
[12] = dose: 200.0 mg/kg/injection, schedule: Q01DX009 (ip), vehicle: saline
[13] = dose: 50.0 mg/kg/injection, schedule: Q01DX005 (ip), vehicle: Klucel (hydroxypropylcellulose) (HPC)
[14] = dose: 100.0 mg/kg/injection, schedule: Q01DX005 (ip), vehicle: Klucel (hydroxypropylcellulose) (HPC)
[15] = dose: 200.0 mg/kg/injection, schedule: Q01DX005 (ip), vehicle: Klucel (hydroxypropylcellulose) (HPC)
[16] = dose: 25.0 mg/kg/injection, schedule: Q01DX009 (ip), vehicle: saline
[17] = dose: 12.5 mg/kg/injection, schedule: Q01DX009 (ip), vehicle: saline

`O=NNc1cnc(Br)cn1` was tested, and the T/C (dose: 3.13 mg/kg/injection, schedule: Q01DX009 (ip), vehicle: water) was 97 % of control, the T/C (dose: 6.25 mg/kg/injection, schedule: Q01DX009 (ip), vehicle: water) was 101 % of control and the T/C (dose: 12.5 mg/kg/injection, schedule: Q01DX009 (ip), vehicle: water) was 105 % of control and 108 % of control. For the same compound, the T/C (dose: 25.0 mg/kg/injection, schedule: Q01DX009 (ip), vehicle: water) was 108 % of control and 118 % of control and the T/C (dose: 100.0 mg/kg/injection, schedule: Q01DX009 (ip), vehicle: water) was 167 % of control.
With `O=C(CCCCC(=O)N/N=C\c1ccccn1)N/N=C\c1ccccn1` the T/C [1] was 109 % of control, the T/C [2] was 100 % of control and the T/C [3] was 109 % of control.
With `Cc1ccc(Nc2nc(N)nc3nc(N)c(C(N)=O)nc23)cc1` the T/C (dose: 25.0 mg/kg/injection, schedule: Q01DX009 (ip), vehicle: saline with Tween-80) was 100 % of control, the T/C [4] was 100 % of control and the T/C [1] was 91 % of control.
`CCCCCCCCCCCCCCCC[N+](C)(CCO)Cc1cnc[nH]1` (configuration not stated) was tested, and the T/C [5] was 110 % of control, the T/C [6] was 111 % of control and the T/C [7] was 118 % of control.
For `CN(C(=O)C(F)(F)F)[Si](C)(C)C`, the T/C [8] was 100 % of control, the T/C [9] was 105 % of control and the T/C (dose: 200.0 mg/kg/injection, schedule: Q01DX005 (ip), vehicle: saline with Tween-80) was 95 % of control.
In the case of `CC(C)(CCl)C(=O)O`, the T/C [10] is reported as 95 % of control.
With `COc1ccccc1N=C1SCC(=O)N1Cc1ccco1` the T/C [4] was 95 % of control, the T/C [1] was 95 % of control and the T/C [2] was 92 % of control.
`Cc1ccc(NC(=O)CCSC(=O)Nc2ccc(C)cc2)cc1` was tested, and the T/C (dose: 100.0 mg/kg/injection, schedule: Q04DX002 (ip), vehicle: Klucel (hydroxypropylcellulose) (HPC)) was 101 % of control, the T/C (dose: 200.0 mg/kg/injection, schedule: Q04DX002 (ip), vehicle: Klucel (hydroxypropylcellulose) (HPC)) was 104 % of control and the T/C (dose: 400.0 mg/kg/injection, schedule: Q04DX002 (ip), vehicle: Klucel (hydroxypropylcellulose) (HPC)) was 104 % of control.
For `Cc1ccc(C2OC(c3ccc(C)cc3)C(C)C(=O)C2C)cc1` (configuration not stated), the T/C [10] was 90 % of control, the T/C [11] was 94 % of control and the T/C [12] was 99 % of control.
In the case of `C/C=C(\C)C(=O)OC1C2C(C)=CC(=O)C(O)C2(C)C2C3(O)OCC24C1OC(=O)C(OC(C)=O)C4C(C)C3O` (configuration not stated), the T/C (dose: 2.5 mg/kg/injection, schedule: Q01DX009 (ip), vehicle: saline) is reported as 155 % of control and the T/C (dose: 5.0 mg/kg/injection, schedule: Q01DX009 (ip), vehicle: saline) is reported as 163 % of control.
For `[Cl][Pt+2][Cl].[NH-]C1CCCC2CCC[N-]C12` (configuration not stated), the T/C [4] was 154 % of control, the T/C [2] was 174 % of control and 184 % of control and the T/C [3] was 176 % of control.
In the case of `Cc1cc(OCCCC[N+](C)(C)Cc2ccc(Br)o2)c(C(C)C)cc1Cl`, the T/C [5] is reported as 91 % of control, the T/C (dose: 3.13 mg/kg/injection, schedule: Q01DX009 (ip), vehicle: saline) is reported as 100 % of control and the T/C [7] is reported as 103 % of control and 105 % of control.
`O=S(=O)(O)c1ccc(N=Nc2c(S(=O)(=O)O)cc3cc(S(=O)(=O)O)cc(O)c3c2O)cc1` was tested, and the T/C [10] was 93 % of control, the T/C [11] was 99 % of control and the T/C [12] was 106 % of control.
In the case of `NC(Cc1cc(I)c(O)c(I)c1)C(=O)O` (configuration not stated), the T/C [4] is reported as 110 % of control, the T/C [1] is reported as 108 % of control and the T/C [2] is reported as 88 % of control.
In the case of `COc1ccc(C2(c3ccccc3)c3ccccc3C(=O)c3ccccc32)cc1`, the T/C [13] is reported as 101 % of control, the T/C [14] is reported as 103 % of control and the T/C [15] is reported as 99 % of control.
`CCN(CC)CCN(Cc1ccccc1)C(=O)C1c2ccccc2Oc2ccccc21` was tested, and the T/C [8] was 102 % of control and the T/C [9] was 105 % of control.
In the case of `NCCc1ccncc1`, the T/C (dose: 60.0 mg/kg/injection, schedule: Q01DX005 (ip), vehicle: suspension in saline) is reported as 98 % of control and the T/C (dose: 120.0 mg/kg/injection, schedule: Q01DX005 (ip), vehicle: suspension in saline) is reported as 94 % of control.
For `CCOC(=O)C(=CNCc1ccccc1)C(=O)OCC`, the T/C (dose: 15.0 mg/kg/injection, schedule: Q01DX009 (ip), vehicle: saline with Tween-80) was 106 % of control, the T/C (dose: 30.0 mg/kg/injection, schedule: Q01DX009 (ip), vehicle: saline with Tween-80) was 104 % of control and the T/C (dose: 60.0 mg/kg/injection, schedule: Q01DX009 (ip), vehicle: saline with Tween-80) was 95 % of control.
In the case of `CC(C)(C)c1cc(/C=N\O)cc(C(C)(C)C)c1O`, the T/C [10] is reported as 98 % of control, the T/C [11] is reported as 107 % of control and the T/C [12] is reported as 107 % of control.
In the case of `C=C1C(=O)OC2(C)CCCCC12` (configuration not stated), the T/C (dose: 50.0 mg/kg/injection, schedule: Q01DX009 (ip), vehicle: Klucel (hydroxypropylcellulose) (HPC)) is reported as 92 % of control, the T/C (dose: 100.0 mg/kg/injection, schedule: Q01DX009 (ip), vehicle: Klucel (hydroxypropylcellulose) (HPC)) is reported as 100 % of control and the T/C (dose: 200.0 mg/kg/injection, schedule: Q01DX009 (ip), vehicle: Klucel (hydroxypropylcellulose) (HPC)) is reported as 93 % of control.
With `Nc1ccccc1SC1CCCCC1O` (configuration not stated) the T/C [16] was 101 % of control, the T/C [10] was 97 % of control and the T/C [11] was 97 % of control. For the same compound, the T/C [12] was 102 % of control.
With `COc1ccc(C(C)c2cc3c(cc2OC)OCO3)c(C)c1` (configuration not stated) the T/C [13] was 116 % of control, the T/C [14] was 92 % of control and the T/C [15] was 119 % of control.
With `Cc1ccc(-n2c(N)c(C#N)c3c(c2=S)CCC3)cc1` the T/C (dose: 50.0 mg/kg/injection, schedule: Q01DX005 (ip), vehicle: Klucel + Tween-80) was 100 % of control, the T/C (dose: 100.0 mg/kg/injection, schedule: Q01DX005 (ip), vehicle: Klucel + Tween-80) was 107 % of control and the T/C (dose: 200.0 mg/kg/injection, schedule: Q01DX005 (ip), vehicle: Klucel + Tween-80) was 96 % of control.
With `C=CN=NNc1cc(OC)ccc1OC` the T/C (dose: 100.0 mg/kg/injection, schedule: Q04DX003 (ip), vehicle: saline + Tween-80 + alcohol) was 105 % of control, the T/C (dose: 200.0 mg/kg/injection, schedule: Q04DX003 (ip), vehicle: saline + Tween-80 + alcohol) was 103 % of control and the T/C (dose: 400.0 mg/kg/injection, schedule: Q04DX003 (ip), vehicle: saline + Tween-80 + alcohol) was 102 % of control.
`COCn1ncnc1C(=O)c1ccccc1` was tested, and the T/C [4] was 97 % of control, the T/C [1] was 98 % of control and the T/C [2] was 92 % of control.
In the case of `O=[N+]([O-])c1ccc(SCc2ccccc2)c2nonc12`, the T/C (dose: 12.5 mg/kg/injection, schedule: Q01DX009 (ip), vehicle: suspension in saline) is reported as 111 % of control, the T/C [16] is reported as 94 % of control and the T/C (dose: 25.0 mg/kg/injection, schedule: Q01DX009 (ip), vehicle: suspension in saline) is reported as 106 % of control. For the same compound, the T/C [10] was 100 % of control, the T/C (dose: 50.0 mg/kg/injection, schedule: Q01DX009 (ip), vehicle: suspension in saline) was 113 % of control and the T/C [11] was 94 % of control.
In the case of `C/C(=N\N/C=N/S(=O)(=O)c1ccccc1)c1ccccc1`, the T/C [13] is reported as 88 % of control, the T/C [14] is reported as 89 % of control and the T/C [15] is reported as 89 % of control.
`Cc1c(-c2c(Cl)cccc2Cl)noc1CN(C)C` was tested, and the T/C (dose: 60.0 mg/kg/injection, schedule: Q01DX005 (ip), vehicle: saline with Tween-80) was 101 % of control, the T/C (dose: 120.0 mg/kg/injection, schedule: Q01DX005 (ip), vehicle: saline with Tween-80) was 100 % of control and the T/C (dose: 240.0 mg/kg/injection, schedule: Q01DX005 (ip), vehicle: saline with Tween-80) was 92 % of control.
For `CCOC(=O)[C]1([Hg][CH3])N=NC(C(=O)OC)=C1C(=O)OC` (configuration not stated), the T/C [5] was 90 % of control, the T/C [6] was 93 % of control and the T/C [7] was 90 % of control. For the same compound, the T/C [17] was 93 % of control.
In the case of `CCCC[N+]1(CC)CCCCC1`, the T/C [6] is reported as 97 % of control, the T/C [7] is reported as 113 % of control and the T/C [17] is reported as 106 % of control.
For `O=C(NC[N+]12CCO[B-]1(c1cccc(Cl)c1)OCC2)c1ccccc1O` (configuration not stated), the T/C [13] was 104 % of control, the T/C [14] was 104 % of control and the T/C [15] was 96 % of control.
For `COc1cc2c(cc1OC)C(CCCCCCCC1NCCc3cc(OC)c(OC)cc31)NCC2` (configuration not stated), the T/C (dose: 12.5 mg/kg/injection, schedule: Q01DX005 (ip), vehicle: saline) was 102 % of control, the T/C (dose: 25.0 mg/kg/injection, schedule: Q01DX005 (ip), vehicle: saline) was 96 % of control and the T/C (dose: 50.0 mg/kg/injection, schedule: Q01DX005 (ip), vehicle: saline) was 100 % of control and 101 % of control.
In the case of `C/C=C1/CN2C3CC1C1(C(=O)OC)C(OC(C)=O)[C@]4(C[C@H]21)c1cc(OC)ccc1N(C)C34` (some centres not stated), the T/C (dose: 3.5 mg/kg/injection, schedule: Q01DX005 (ip), vehicle: Klucel (hydroxypropylcellulose) (HPC)) is reported as 115 % of control, the T/C (dose: 7.0 mg/kg/injection, schedule: Q01DX005 (ip), vehicle: Klucel (hydroxypropylcellulose) (HPC)) is reported as 108 % of control and the T/C (dose: 14.0 mg/kg/injection, schedule: Q01DX005 (ip), vehicle: Klucel (hydroxypropylcellulose) (HPC)) is reported as 94 % of control. For the same compound, the T/C (dose: 28.0 mg/kg/injection, schedule: Q01DX005 (ip), vehicle: Klucel (hydroxypropylcellulose) (HPC)) was 100 % of control.
